Assay results as given in patent US11746110B2, “Alkynyl (hetero) aromatic ring compounds used for inhibiting protein kinase activity” (Shenzhen TargetRx, Inc., priority 2018, dated 2023).

Tests used:
ABL^T315I = ABL^T315I (Homo sapiens (Human), UniProt P00519, T315I); experiment: Biochemical kinase analysis, ABL T315I; conditions: kinase inhibition assay
Procedure: (§1) Reagents and materials: ABL (ThermoFisher, Cat. No. PV3585), ABL^T315I(Thermo Fisher, Cat. No. PR7429B), Ret (Carna, Cat. No. 08-159-10 ug), RET^V804M, Active (Signalchem, Cat. No. R02-12GG), ATP (Sigma, Cat. No. A7699-1G), DMSO (Sigma, Cat. No. D2650), 96-well plate (Corning, Cat. No. 3365), 384-well plate (Greiner, Cat. No. 784076), buffer solution (Thermo Fisher, Cat. No. PR4876B).
(§2) Compound formulation: The test compounds were dissolved in DMSO to prepare a 20 mM stock solution. Before use, the compounds were diluted in DMSO to 0.1 mM, and diluted into 11 concentrations with a 3-fold gradient. When addition, dilutions of 4-fold final concentration were then made with buffer solution.
(§3) Kinase assay method: After preparing the buffer, the enzyme was mixed with pre-formulated and diluted compounds of different concentrations in duplicate for each concentration, and placed at room temperature for 30 minutes. The corresponding substrate and ATP were added thereto, and reacted at room temperature for 60 minutes (both a negative and a positive control were set). After the reaction, antibody was added for detection, Evnvision detection was carried out after 60 minutes incubation at room temperature, and data was collected. Data analysis and fitting were made according to XLfit5 software.

RET^V804M = RET^V804M (Homo sapiens (Human), UniProt P07949, V804M); experiment: Biochemical kinase analysis, RET V804M; conditions: kinase inhibition assay
RET^V804M, sequence (P07949 29-1114 V804M): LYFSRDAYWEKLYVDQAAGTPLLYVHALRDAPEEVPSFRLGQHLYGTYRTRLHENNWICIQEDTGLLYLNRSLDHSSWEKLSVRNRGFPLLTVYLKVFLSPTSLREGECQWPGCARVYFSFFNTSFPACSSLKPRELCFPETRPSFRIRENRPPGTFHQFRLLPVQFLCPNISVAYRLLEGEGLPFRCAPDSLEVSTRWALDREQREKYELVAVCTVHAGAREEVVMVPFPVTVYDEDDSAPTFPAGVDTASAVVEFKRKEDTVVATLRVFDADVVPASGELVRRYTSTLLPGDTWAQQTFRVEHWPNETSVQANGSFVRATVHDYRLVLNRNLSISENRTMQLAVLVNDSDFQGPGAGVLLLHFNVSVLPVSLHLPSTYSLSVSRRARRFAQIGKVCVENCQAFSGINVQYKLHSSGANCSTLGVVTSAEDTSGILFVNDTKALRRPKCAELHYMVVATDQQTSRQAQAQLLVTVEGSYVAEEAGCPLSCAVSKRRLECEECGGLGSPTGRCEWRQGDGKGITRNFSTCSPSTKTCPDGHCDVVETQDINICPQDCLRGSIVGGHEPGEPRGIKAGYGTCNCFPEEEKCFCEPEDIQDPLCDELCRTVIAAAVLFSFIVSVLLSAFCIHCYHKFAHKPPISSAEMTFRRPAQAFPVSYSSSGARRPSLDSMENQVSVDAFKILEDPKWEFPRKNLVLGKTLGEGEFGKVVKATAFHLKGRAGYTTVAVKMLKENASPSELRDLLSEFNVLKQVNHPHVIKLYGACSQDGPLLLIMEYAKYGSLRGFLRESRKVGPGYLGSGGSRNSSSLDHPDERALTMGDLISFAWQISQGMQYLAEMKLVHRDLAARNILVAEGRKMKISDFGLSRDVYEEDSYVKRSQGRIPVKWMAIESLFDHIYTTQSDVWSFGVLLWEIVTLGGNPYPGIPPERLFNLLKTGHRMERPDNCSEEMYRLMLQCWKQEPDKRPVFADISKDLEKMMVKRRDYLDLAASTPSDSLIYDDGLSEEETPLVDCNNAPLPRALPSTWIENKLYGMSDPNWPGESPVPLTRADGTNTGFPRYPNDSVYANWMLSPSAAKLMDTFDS
Procedure: as §1, §2, §3

K562 cells = experiment: Cell proliferation analysis, K562; format: cell-based; conditions: Homo sapiens, K562, 72 h; 3 days, CellTiter-Glo
Procedure: (§4) The inhibitory effect of the example compounds on Ba/F3 parental, Ba/F3 Bcr-Abl^T315I, K562, Ba/F3 KIF5B-RET, BaF3 FLT3-ITD cell activity was determined.
(§5) Materials and reagents: RPMI-1640 medium (GIBCO, Catalog No. A10491-01), fetal bovine serum (GIBCO, Catalog No. 10099141), antibiotics (Penicillin-Streptomycin), IL-3(PeproTech), promycin; cell lines: Ba/F3 parental, Ba/F3 Bcr-Abl^T315I, Ba/F3 KIF5B-RET, BaF3 FLT3-ITD, (purchased from American type culture collection, ATCC), K562 live cell detection kit CellTiter-Glo4(Promega, Catalog No. G7572), 96-well black wall transparent flat bottom cell culture plate (Corning, Catalog No. 3340).
(§6) Test method: 1. Preparation of cell plate: Ba/F3 parental, Ba/F3 Bcr-Abl^T315I K563, Ba/F3 KIFSB-RET, BaF3 FLT3-ITD cells were respectively seeded in 96-well plates, and 8 ng/ml IL-3 was added to the Ba/F3 cells, and the cell plates were placed in a carbon dioxide incubator and cultured overnight. 2. The test compounds were dissolved in DMSO, 9 compound concentrations were made with a 3.16-fold gradient dilution in triplicate. 3. Treatment of the cells with compounds: The compounds were transferred to the cell plate with a starting concentration of 10 μM. The cell plate was placed in a carbon dioxide incubator for 3 days. 4. Detection: CellTiter-Glo agent was added to the cell plate, and incubated at room temperature for 30 minutes to stabilize the luminous signal. PerkinElmer Envision multi-label analyzer was used for reading, wherein A represents IC50≤50 nM, B represents IC50 is 50-100 nM, C represents IC50 is 100-500 nM, D represents IC50 is 500-1000 nM, […].

Ba/F3 parental cells = experiment: Cell proliferation analysis, Ba/F3 parental; format: cell-based; conditions: Mus musculus, BaF3, 72 h; 3 days, CellTiter-Glo, 8 ng/ml IL-3
Procedure: as §4, §5, §6

ABL = ABL (Homo sapiens (Human), UniProt P00519); experiment: Biochemical kinase analysis, ABL; conditions: kinase inhibition assay
Procedure: as §1, §2, §3

[1] = tested on: Ba/F3 Bcr-Abl^T315I cells; experiment: Cell proliferation analysis, Ba/F3 Bcr-Abl T315I; format: cell-based; conditions: Mus musculus, BaF3, 72 h; 3 days, CellTiter-Glo; read-out: IC50 (nM) Ba/F3 BCR-ABL^T315
Procedure: as §4, §5, §6

Ret = Ret (Homo sapiens (Human), UniProt P07949); experiment: Biochemical kinase analysis, Ret; conditions: kinase inhibition assay
Ret, sequence (P07949 29-1114): as the sequence (P07949 29-1114 V804M) above, with M776V counted along it
Procedure: as §1, §2, §3

Ba/F3 KIF5B-RET cells = experiment: Cell proliferation analysis, Ba/F3 KIF5B-RET; format: cell-based; conditions: Mus musculus, BaF3, 72 h; 3 days, CellTiter-Glo
Procedure: as §4, §5, §6

BaF3 FLT3-ITD cells = experiment: Cell proliferation analysis, BaF3 FLT3-ITD; format: cell-based; conditions: Ba/F3 FLT3-ITD, 72 h; 3 days, CellTiter-Glo
Procedure: as §4, §5, §6

Ba/F3 BCR-ABL cells = experiment: Cell proliferation analysis, Ba/F3 BCR-ABL; format: cell-based; conditions: Mus musculus, BaF3, 72 h; 3 days, CellTiter-Glo
Procedure: [Worded in the source for another variant; this variant is reported under the same test.] as §4, §5, §6

With `Cc1ccc(NC(=O)c2cccc(C(F)(F)F)c2)cc1C#Cc1cnc2c(Nc3cnn(C)c3)nccn12` [Example 1, N-(4-methyl-3-((8-((1-methyl-1H-pyrazol-4-yl)amino)imidazo[1,2-a]pyrazin-3-yl)ethynyl)phenyl)-3-(trifluoromethyl)benzamide] the IC50 (ABL^T315I) was 9.05 nM, the IC50 (RET^V804M) was 12.2 nM and the IC50 (K562 cells) was 0.28 nM. For the same compound, the IC50 (Ba/F3 parental cells) was 838 nM, the IC50 (ABL) was 3.91 nM and the IC50 [1] was 15 nM. The IC50 (Ret) was 0.88 nM, the IC50 (Ba/F3 KIF5B-RET cells) was 10.1 nM and the IC50 (BaF3 FLT3-ITD cells) was 17.7 nM. It also gave an IC50 (Ba/F3 BCR-ABL cells) of 5.63 nM.
For `Cc1ccc(C(=O)Nc2cccc(C(F)(F)F)c2)cc1C#Cc1cnc2c(Nc3cnn(C)c3)nccn12` [Example 2, 4-methyl-3-((8-((1-methyl-1H-pyrazol-4-yl)amino)imidazo[1,2-a]pyrazin-3-yl)ethynyl)-N-(3-(trifluoromethyl)phenyl)benzamide], the IC50 (ABL^T315I) was 10.1 nM, the IC50 (RET^V804M) was 2.69 nM and the IC50 (K562 cells) was 0.5 nM. For the same compound, the IC50 (Ba/F3 parental cells) was 945 nM, the IC50 (ABL) was 6.65 nM and the IC50 [1] was 17 nM. The IC50 (Ret) was 0.32 nM, the IC50 (Ba/F3 KIF5B-RET cells) was 6.02 nM and the IC50 (BaF3 FLT3-ITD cells) was 10 nM. It also gave an IC50 (Ba/F3 BCR-ABL cells) of 5.1 nM.
`Cc1ccc(NC(=O)c2ccnc(C(F)(F)F)c2)cc1C#Cc1cnc2c(Nc3cnn(C)c3)nccn12` [Example 3, N-(4-methyl-3-((8-((1-methyl-1H-pyrazol-4-yl)amino)imidazo[1,2-a]pyrazin-3-yl)ethynyl)phenyl)-2-(trifluoromethyl)isonicotinamide] was tested, and the IC50 (ABL^T315I) was 27.5 nM, the IC50 (RET^V804M) was 23.1 nM and the IC50 (K562 cells) was 0.16 nM. The IC50 (Ba/F3 parental cells) was 1340 nM, the IC50 (ABL) was 1.89 nM and the IC50 [1] was 101 nM. The IC50 (Ret) was 0.25 nM, the IC50 (Ba/F3 KIF5B-RET cells) was 26.4 nM and the IC50 (BaF3 FLT3-ITD cells) was 67.7 nM. It also gave an IC50 (Ba/F3 BCR-ABL cells) of 4.75 nM.
`Cc1cn(-c2cc(C(=O)Nc3ccc(C)c(C#Cc4cnc5c(Nc6cnn(C)c6)nccn45)c3)cc(C(F)(F)F)c2)cn1` [Example 4, 3-(4-methyl-1H-imidazol-1-yl)-N-(4-methyl-3-((8-((1-methyl-1H-pyrazol-4-yl)amino)imidazo[1,2-a]pyrazin-3-yl)ethynyl)phenyl)-5-(trifluoromethyl)benzamide] was tested, and the IC50 (ABL^T315I) was 7.69 nM, the IC50 (K562 cells) was 3.8 nM and the IC50 (Ba/F3 parental cells) was 314 nM. The IC50 (ABL) was 4.93 nM, the IC50 [1] was 50.2 nM and the IC50 (Ba/F3 BCR-ABL cells) was 19.7 nM.
Compound `Cc1ccc(NC(=O)c2ccc(CN3CCN(C)CC3)c(C(F)(F)F)c2)cc1C#Cc1cnc2c(Nc3cnn(C)c3)nccn12` [Example 5, N-(4-methyl-3-((8-((1-methyl-1H-pyrazol-4-yl)amino)imidazo[1,2-a]pyrazin-3-yl)ethynyl)phenyl)-4-((4-methylpiperazin-1-yl)methyl)-3-(trifluoromethyl)benzamide] has an IC50 (ABL^T315I) of 3.44 nM, an IC50 (K562 cells) of 1.32 nM and an IC50 (Ba/F3 parental cells) of 340 nM. The IC50 (ABL) was 3.33 nM, the IC50 [1] was 88 nM and the IC50 (Ba/F3 BCR-ABL cells) was 10.6 nM.
With `Cc1ccc(NC(=O)c2cc(C(C)(C)C)on2)cc1C#Cc1cnc2c(Nc3cnn(C)c3)nccn12` [Example 6, 5-(tert-butyl)-N-(4-methyl-3-((8-((1-methyl-1H-pyrazol-4-yl)amino)imidazo[1,2-a]pyrazin-3-yl)ethynyl)phenyl)isoxazole-3-carboxamide] the IC50 (ABL^T315I) was 65 nM, the IC50 (K562 cells) was 6.56 nM and the IC50 (Ba/F3 parental cells) was 5230 nM. The IC50 (ABL) was 1.6 nM and the IC50 (Ba/F3 BCR-ABL cells) was 9.61 nM.
With `Cc1ccc(NC(=O)Nc2ccc(Cl)c(C(F)(F)F)c2)cc1C#Cc1cnc2c(Nc3cnn(C)c3)nccn12` [Example 7, 1-(4-chloro-3-(trifluoromethyl)phenyl)-3-(4-methyl-3-((8-((1-methyl-1H-pyrazol-4-yl)amino)imidazo[1,2-a]pyrazin-3-yl)ethynyl)phenyl)urea] the IC50 (K562 cells) was 4.53 nM, the IC50 (Ba/F3 parental cells) was 620 nM and the IC50 [1] was 291 nM.
Compound `COCCn1cc(Nc2nccn3c(C#Cc4cc(NC(=O)c5cccc(C(F)(F)F)c5)ccc4C)cnc23)cn1` [Example 8, N-(3-((8-((1-(2-methoxyethyl)-1H-pyrazol-4-yl)amino)imidazo[1,2-a]pyrazin-3-yl)ethynyl)-4-methylphenyl)-3-(trifluoromethyl)benzamide] has an IC50 (ABL^T315I) of 6.47 nM, an IC50 (K562 cells) of 0.96 nM and an IC50 (Ba/F3 parental cells) of 927 nM. For the same compound, the IC50 (ABL) was 2.55 nM, the IC50 [1] was 35.8 nM and the IC50 (Ba/F3 BCR-ABL cells) was 6.29 nM.
`COCCn1cc(Nc2nccn3c(C#Cc4cc(NC(=O)c5ccnc(C(F)(F)F)c5)ccc4C)cnc23)cn1` [Example 9, N-(3-((8-((1-(2-methoxyethyl)-1H-pyrazol-4-yl)amino)imidazo[1,2-a]pyrazin-3-yl)ethynyl)-4-methylphenyl)-2-(trifluoromethyl)isonicotinamide] gave an IC50 (ABL^T315I) of 19.9 nM, an IC50 (K562 cells) of 0.32 nM and an IC50 (Ba/F3 parental cells) of 4280 nM. For the same compound, the IC50 (ABL) was 0.93 nM and the IC50 (Ba/F3 BCR-ABL cells) was 2.75 nM.
Compound `COCCn1cc(Nc2nccn3c(C#Cc4cc(NC(=O)c5cc(C(C)(C)C)on5)ccc4C)cnc23)cn1` [Example 10, 5-(tert-butyl)-N-(3-((8-((1-(2-methoxyethyl)-1H-pyrazol-4-yl)amino)imidazo[1,2-a]pyrazin-3-yl)ethynyl)-4-methylphenyl)isoxazole-3-carboxamide] has an IC50 (K562 cells) of 1.27 nM, an IC50 (Ba/F3 parental cells) of 2680 nM and an IC50 (ABL) of 2.7 nM. For the same compound, the IC50 [1] was 56.1 nM and the IC50 (Ba/F3 BCR-ABL cells) was 17.3 nM.
`Cc1ccc(NC(=O)c2cccc(C(F)(F)F)c2)cc1C#Cc1cnc2c(Nc3cnn(C)c3)ccnn12` [Example 11, N-(4-methyl-3-((8-((1-methyl-1H-pyrazol-4-yl)amino)imidazo[1,2-b]pyridazin-3-yl)ethynyl)phenyl)-3-(trifluoromethyl)benzamide] showed an IC50 (ABL^T315I) of 57.2 nM, an IC50 (K562 cells) of 0.26 nM and an IC50 (Ba/F3 parental cells) of 770 nM. The IC50 (ABL) was 4.18 nM, the IC50 [1] was 144 nM and the IC50 (Ba/F3 BCR-ABL cells) was 4.76 nM.
In the case of `Cc1ccc(NC(=O)c2ccnc(C(F)(F)F)c2)cc1C#Cc1cnc2c(Nc3cnn(C)c3)ccnn12` [Example 12, N-(4-methyl-3-((8-((1-methyl-1H-pyrazol-4-yl)amino)imidazo[1,2-b]pyridazin-3-yl)ethynyl)phenyl)-2-(trifluoromethyl)isonicotinamide], the IC50 (K562 cells) is reported as 0.27 nM, the IC50 (Ba/F3 parental cells) is reported as 1890 nM and the IC50 (ABL) is reported as 2.24 nM. The IC50 (Ba/F3 BCR-ABL cells) was 7.75 nM.
`Cc1ccc(NC(=O)c2ccc(C)c(C(F)(F)F)c2)cc1C#Cc1cnc2c(Nc3cnn(C)c3)ccnn12` [Example 13, 4-methyl-N-(4-methyl-3-((8-((1-methyl-1H-pyrazol-4-yl)amino)imidazo[1,2-b]pyridazin-3-yl)ethynyl)phenyl)-3-(trifluoromethyl)benzamide] was tested, and the IC50 (ABL^T315I) was 67.2 nM, the IC50 (K562 cells) was 1.3 nM and the IC50 (Ba/F3 parental cells) was 1220 nM. For the same compound, the IC50 (ABL) was 9.88 nM, the IC50 [1] was 162 nM and the IC50 (Ba/F3 BCR-ABL cells) was 15.6 nM.
Work on `Cc1ccc(NC(=O)Nc2ccc(Cl)c(C(F)(F)F)c2)cc1C#Cc1cnc2c(Nc3cnn(C)c3)ccnn12` [Example 16, 1-(4-chloro-3-(trifluoromethyl)phenyl)-3-(4-methyl-3-((8-((1-methyl-1H-pyrazol-4-yl)amino)imidazo[1,2-b]pyridazin-3-yl)ethynyl)phenyl)urea] yielded an IC50 (K562 cells) of 12.1 nM and an IC50 (Ba/F3 parental cells) of 1370 nM.
